From ChEMBL document CHEMBL5252582, “Glyclauxins A-E: Dimeric Oxaphenalenone Aminoglycosides from an Australian Wasp Nest-Derived Fungus Talaromyces sp. CMB-MW102” (J Nat Prod, 2023)
pIC50: −log10 of the molar value.

Tests used:
[1] = system: Candida albicans; assay: Antifungal activity against Candida albicans ATCC10231 assessed as fungal growth inhibition incubated for 24 hrs by spectrophotometric analysis; format: functional, organism-based; settings: ATCC10231, 24 h
[2] = system: SW-620; assay: Cytotoxicity against human SW620 cells assessed as cell growth inhibition incubated for 48 hrs by MTT assay; format: functional, cell-based; settings: SW-620, 48 h
[3] = system: Escherichia coli; assay: Antibacterial activity against gram negative Escherichia coli ATCC11775 assessed as bacterial growth inhibition incubated for 24 hrs by spectrophotometric analysis; format: functional, organism-based; settings: ATCC11775, 24 h
[4] = system: Staphylococcus aureus; assay: Antibacterial activity against gram positive Staphylococcus aureus ATCC25923 assessed as bacterial growth inhibition incubated for 24 hrs by spectrophotometric analysis; format: functional, organism-based; settings: ATCC25923, 24 h
[5] = system: NCI-H460; assay: Cytotoxicity against human NCI-H460 cells assessed as cell growth inhibition incubated for 48 hrs by MTT assay; format: functional, cell-based; settings: NCI-H460, 48 h

Measured: pIC50

CO[C@@]12c3c(C)cc(O)c4c(=O)n([C@H]5CO[C@H](CO)[C@@H](O)[C@@H]5O)cc(c34)C(=O)[C@@H]1[C@]13COC(=O)c4c(O)cc(C)c(c41)C(=O)[C@H]2[C@@H]3OC(C)=O
< 4.52: all assays above

CO[C@@]12c3c(C)cc(O)c4c(=O)occ(c34)C(=O)[C@@H]1[C@]13COC(=O)c4c(O)cc(C)c(c41)C(=O)C2[C@@H]3OC(C)=O
< 4.52: all assays above

CC(=O)O[C@H]1[C@@H]2C(=O)c3c(C)cc(O)c4c3[C@@]1(COC4=O)C1=C2c2c(C)cc(O)c3c(=O)n([C@H]4CO[C@H](CO)[C@@H](O)[C@@H]4O)cc(c23)C1=O
< 4.52: all assays above

CO[C@@]12c3c(C)cc(O)c4c(=O)n([C@H]5CO[C@H](CO)[C@@H](O)[C@@H]5O)cc(c34)C(=O)[C@@H]1[C@]13COC(=O)c4c(O)cc(C)c(c41)C(=O)[C@H]2[C@@H]3O
< 4.52: all assays above

CC(=O)OC[C@H]1OC[C@H](n2cc3c4c(c(C)cc(O)c4c2=O)C2=C(C3=O)[C@]34COC(=O)c5c(O)cc(C)c(c53)C(=O)[C@H]2[C@@H]4OC(C)=O)[C@@H](O)[C@@H]1O
< 4.52: all assays above

Cc1cc(O)c2c3c1C(=O)[C@@H]1C4=C(C(=O)c5cn([C@H]6CO[C@H](CO)[C@@H](O)[C@@H]6O)c(=O)c6c(O)cc(C)c4c56)[C@@]3(COC2=O)[C@H]1O
< 4.52: all assays above
